Measured values reported in US5344765A, “DNA encoding polypeptides with activity against gram-positive and gram-negative bacteria” (priority 1993, dated 1994).
Square brackets hold non-standard residues; d marks the D form. Ends that are not written are not given here. Peptide text beside a SMILES is read from it. hSer = N[C@@H](CCO)C(=O)O

How the values were obtained:
M. luteus = experiment: halo (inhibition zone) agar assay of bactericidal activity; type: cell-based; details: Micrococcus luteus; per nanomole of polypeptide applied to well
Protocol: (§1) The assay for antimicrobial activity was performed by pouring 10 ml of agar in TYE media containing about 10^7 viable cells of the test organisms. Wells, 2 mm in diameter, were punched in the agar plates. Aliquots of the modified cecropin-like polypeptides (2-12 ul) were then added to each well. The diameter of the inhibition zones, or haloes, around the wells, were measured after overnight incubation at 25° C.
(§2) The activities of various cecropin-like polypeptides were tested against both Gram-negative and Gram-positive organisms. Anti-microbial activity against the Gram-negative organisms remained unaltered for most of the Gram-negative bacteria (except, i.e., Serratia marcescens) as shown in Table 1. […] To determine a standard of halo formation, the various modified cecropin-like polypeptides were also applied to E. coli D21. Activity shown in Tables 1 and 2 is expressed as the ratio of the radius of the cleared halo for each organism versus that for E. coli D21.
(§3) The cecropin-like polypeptide modified at the carboxy terminus with ehtylenediamine and naturally occurring cecropin A were tested against a variety of organisms. The relative activities of the antimicrobial agents were expressed per nanomole of polypeptide applied to each well (Table 3).

B. subtilis = experiment: as above; type: cell-based; details: Bacillus subtilus; per nanomole of polypeptide applied to well
Protocol: as §1, §2, §3

B. megaterium = experiment: as above; type: cell-based, Bacillus megaterium; details: for Relative activity: ratio of the radius of the cleared halo versus that for E. coli D21: B. megaterium, overnight incubation at 25° C.
Protocol: as §1, §2, §3

Escherichia coli = experiment: halo assay, activity per nanomole; type: cell-based; details: per nanomole of polypeptide applied to well
Protocol: as §1, §3

Bacillus megaterium = details: from the literature; cited from earlier work
S. faecalis = experiment: halo (inhibition zone) agar assay of bactericidal activity; type: cell-based, Streptococcus faecalis
Protocol: as §1, §2, §3

Compound | Relative activity: ratio of the radius of the cleared halo versus that for E. coli D21 (B. megaterium) | Sensitivity of Bacillus megaterium to cecropin (Bacillus megaterium) | also measured
KWKLFKKIEKVGQNIRDGIIKAGPAVAVVGQATQIAK-NH2 [CA--NH2, cecropin A] | 0.7 ± 0.05 | highly sensitive | Activity per Nanomole (radius of the inhibitory ring) (M. luteus): 6.1 millimeters; Activity per Nanomole (radius of the inhibitory ring) (B. subtilis): < 0.5 millimeters; Activity per Nanomole (radius of the inhibitory ring) (B. megaterium; Bacillus megaterium, per nanomole of polypeptide applied to well): 5.1 millimeters; Activity per Nanomole (radius of the inhibitory ring) (Escherichia coli): 6.1 millimeters; Activity per Nanomole (radius of the inhibitory ring) (S. faecalis; Streptococcus faecalis, per nanomole of polypeptide applied to well): < 0.5 millimeters
cecropin B (KWKVFKKIEKMGRNIRNGIVKAGPAIAVLGEAKAL; ends and bridges not checked; UniProt P01508 27-61, looked up) [natural antibacterial peptide purified from immune hemolymph] |  | highly sensitive | 
CC[C@H](C)[C@H](NC(=O)CNC(=O)[C@H](CC(=O)O)NC(=O)[C@H](CCCNC(=N)N)NC(=O)[C@@H](NC(=O)[C@H](CC(N)=O)NC(=O)[C@H](CCC(N)=O)NC(=O)CNC(=O)[C@@H](NC(=O)[C@H](CCCCN)NC(=O)[C@H](CCC(=O)O)NC(=O)[C@@H](NC(=O)[C@H](CCCCN)NC(=O)[C@H](CCCCN)NC(=O)[C@H](Cc1ccccc1)NC(=O)[C@H](CC(C)C)NC(=O)[C@H](CCCCN)NC(=O)[C@H](Cc1c[nH]c2ccccc12)NC(=O)[C@@H](N)CCCCN)[C@@H](C)CC)C(C)C)[C@@H](C)CC)C(=O)N[C@H](C(=O)N[C@@H](CCCCN)C(=O)N[C@@H](C)C(=O)NCC(=O)N1CCC[C@H]1C(=O)N[C@@H](C)C(=O)N[C@H](C(=O)N[C@@H](C)C(=O)N[C@H](C(=O)N[C@H](C(=O)NCC(=O)N[C@@H](CCC(N)=O)C(=O)N[C@@H](C)C(=O)N[C@H](C(=O)N[C@@H](CCC(N)=O)C(=O)N[C@H](C(=O)N[C@@H](C)C(=O)N[C@@H](CCCCN)C(=O)N[C@@H](CCO)C(N)=O)[C@@H](C)CC)[C@@H](C)O)C(C)C)C(C)C)C(C)C)[C@@H](C)CC [CA--HS--NH2] (H-KWKLFKKIEKVGQNIRDGIIKAGPAVAVVGQATQIAK[hSer]-NH2) | 0.4 ± 0.2 |  | Relative activity: ratio of the radius of the cleared halo versus that for E. coli D21 (S. faecalis; S. faecalis, overnight incubation at 25° C.): 0
CC[C@H](C)[C@H](NC(=O)CNC(=O)[C@H](CC(=O)O)NC(=O)[C@H](CCCNC(=N)N)NC(=O)[C@@H](NC(=O)[C@H](CC(N)=O)NC(=O)[C@H](CCC(N)=O)NC(=O)CNC(=O)[C@@H](NC(=O)[C@H](CCCCN)NC(=O)[C@H](CCC(=O)O)NC(=O)[C@@H](NC(=O)[C@H](CCCCN)NC(=O)[C@H](CCCCN)NC(=O)[C@H](Cc1ccccc1)NC(=O)[C@H](CC(C)C)NC(=O)[C@H](CCCCN)NC(=O)[C@H](Cc1c[nH]c2ccccc12)NC(=O)[C@@H](N)CCCCN)[C@@H](C)CC)C(C)C)[C@@H](C)CC)C(=O)N[C@H](C(=O)N[C@@H](CCCCN)C(=O)N[C@@H](C)C(=O)NCC(=O)N1CCC[C@H]1C(=O)N[C@@H](C)C(=O)N[C@H](C(=O)N[C@@H](C)C(=O)N[C@H](C(=O)N[C@H](C(=O)NCC(=O)N[C@@H](CCC(N)=O)C(=O)N[C@@H](C)C(=O)N[C@H](C(=O)N[C@@H](CCC(N)=O)C(=O)N[C@H](C(=O)N[C@@H](C)C(=O)N[C@@H](CCCCN)C(=O)N[C@@H](CCO)C(=O)O)[C@@H](C)CC)[C@@H](C)O)C(C)C)C(C)C)C(C)C)[C@@H](C)CC [CA--HS--COOH] (H-KWKLFKKIEKVGQNIRDGIIKAGPAVAVVGQATQIAK[hSer]-OH) | 0.5 ± 0.1 |  | 
KWKLFKKIEKVGQNIRDGIIKAGPAVAVVGQATQIAK [CA--COOH] | 0.2 ± 0.08 |  | 
cecropin D |  | relatively resistant | 
